Experimental data published in ChEMBL document CHEMBL1201862, “PubChem BioAssay data set” (2004).
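Assay format: 96-well plates, 48-hour exposure. GI50: concentration for 50% inhibition of growth.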 The source made the active and inactive calls. No stated cut-off is given here; in the data, active = GI50 up to about 1.1 µM and inactive = higher.

Key:
Assay in all cases: NCI-60 cell line screen, 48 h
KM12 = tested on: KM12
UO-31 = tested on: UO-31
OVCAR-5 = tested on: OVCAR-5
OVCAR-3 = tested on: OVCAR-3
NCI/ADR-RES = tested on: NCI/ADR-RES
HT-29 = tested on: HT-29
Malme-3M = tested on: Malme-3M
A549 = tested on: A549
SK-MEL-5 = tested on: SK-MEL-5
NCI-H23 = tested on: NCI-H23
HL-60 = tested on: HL-60
U-251 = tested on: U-251
RXF 393 = tested on: RXF 393
SF-295 = tested on: SF-295
SNB-75 = tested on: SNB-75
CCRF-CEM = tested on: CCRF-CEM
OVCAR-4 = tested on: OVCAR-4
CAKI-1 = tested on: CAKI-1
K562 = tested on: K562
UACC-257 = tested on: UACC-257

Measured: GI50

O=C(Nc1ccccc1F)c1c(O)nc2sccn2c1=O
inactive: KM12 > 10 µM | UO-31 > 10 µM | OVCAR-5 > 10 µM | OVCAR-3 > 10 µM | NCI/ADR-RES > 10 µM | HT-29 > 10 µM | Malme-3M > 10 µM | A549 > 10 µM | SK-MEL-5 > 10 µM | NCI-H23 > 10 µM | HL-60 > 10 µM | U-251 > 10 µM | RXF 393 > 10 µM | SF-295 > 10 µM | SNB-75 > 10 µM | CCRF-CEM > 10 µM | OVCAR-4 > 10 µM | CAKI-1 > 10 µM

CNC(=O)SCC(N)C(=O)O (stereo not given)
inactive: KM12 > 100 µM | UO-31 > 100 µM | OVCAR-5 > 100 µM | OVCAR-3 > 100 µM | NCI/ADR-RES > 100 µM | HT-29 > 71.3 µM | Malme-3M > 100 µM | A549 > 100 µM | SK-MEL-5 > 78.7 µM | NCI-H23 > 84.1 µM | HL-60 25.2 µM | U-251 > 89.9 µM | RXF 393 > 100 µM | SF-295 > 66.2 µM | SNB-75 > 100 µM | CCRF-CEM 25.8 µM | OVCAR-4 > 100 µM | CAKI-1 65.8 µM | K562 30.6 µM | UACC-257 > 100 µM

CCOC(=O)CSc1nc(N)c2c(-c3ccc(OC)c(OC)c3)c3c(nc2n1)CCCC3
inactive: KM12 > 100 µM | UO-31 > 100 µM | OVCAR-5 > 100 µM | OVCAR-3 > 100 µM | NCI/ADR-RES 60.3 µM | HT-29 > 100 µM | Malme-3M 88.1 µM | A549 > 100 µM | SK-MEL-5 > 100 µM | NCI-H23 > 100 µM | HL-60 > 100 µM | U-251 > 100 µM | RXF 393 49.2 µM | SF-295 24.4 µM | SNB-75 14.4 µM | CCRF-CEM > 100 µM | OVCAR-4 34.4 µM | CAKI-1 > 100 µM | K562 > 100 µM | UACC-257 > 100 µM

C[C@]12CC[C@@H]3c4ccc(OCCN5CCCC5)cc4CC[C@H]3[C@@H]1CCC2=O
inactive: UO-31 20.8 µM | OVCAR-5 33.7 µM | OVCAR-3 23.9 µM | NCI/ADR-RES 24.7 µM | HT-29 25.9 µM | A549 23.6 µM | SK-MEL-5 13.3 µM | NCI-H23 36.4 µM | HL-60 45.2 µM | U-251 75.2 µM | RXF 393 25.5 µM | SF-295 18.7 µM | CCRF-CEM 37.9 µM | OVCAR-4 21.5 µM | CAKI-1 31.1 µM | K562 25.4 µM | UACC-257 27 µM

CSc1nc(CO)c(CO)n1C
inactive: KM12 > 100 µM | UO-31 > 100 µM | OVCAR-5 > 100 µM | OVCAR-3 > 100 µM | NCI/ADR-RES > 100 µM | HT-29 > 100 µM | A549 > 100 µM | SK-MEL-5 > 100 µM | NCI-H23 > 100 µM | HL-60 > 100 µM | U-251 > 100 µM | RXF 393 > 100 µM | SF-295 > 100 µM | SNB-75 > 100 µM | CCRF-CEM > 100 µM | OVCAR-4 > 100 µM | CAKI-1 > 100 µM | K562 > 100 µM | UACC-257 > 100 µM

COc1cc(-c2cc(=O)c3c(O)c(CC=C(C)C)c(O)cc3o2)ccc1O
inactive: UO-31 33.5 µM | OVCAR-5 > 50 µM | OVCAR-3 14.9 µM | NCI/ADR-RES 16 µM | HT-29 > 50 µM | Malme-3M 13.5 µM | A549 26 µM | SK-MEL-5 14.6 µM | NCI-H23 > 50 µM | HL-60 > 50 µM | U-251 24.1 µM | RXF 393 24.4 µM | SF-295 12 µM | CCRF-CEM 16.8 µM | OVCAR-4 15.8 µM | CAKI-1 10 µM | K562 16.7 µM | UACC-257 > 50 µM

Cn1c(=O)[nH]c2nncnc2c1=O
inactive: KM12 23.8 µM | UO-31 46 µM | OVCAR-5 186 µM | OVCAR-3 78.9 µM | NCI/ADR-RES 217 µM | HT-29 114 µM | Malme-3M 44.7 µM | A549 80 µM | SK-MEL-5 92.5 µM | NCI-H23 179 µM | HL-60 27.9 µM | U-251 28.7 µM | RXF 393 19.3 µM | SF-295 103 µM | SNB-75 21 µM | CCRF-CEM 173 µM | OVCAR-4 85.5 µM | CAKI-1 11 µM | K562 211 µM | UACC-257 75.3 µM

Nc1cccc2c1C1=NNC(=O)CC1C2 (stereo not given)
inactive: KM12 > 100 µM | UO-31 > 100 µM | OVCAR-5 > 100 µM | OVCAR-3 > 100 µM | NCI/ADR-RES > 100 µM | Malme-3M > 100 µM | A549 > 100 µM | SK-MEL-5 > 100 µM | HL-60 > 66.5 µM | U-251 > 100 µM | RXF 393 > 100 µM | SF-295 > 100 µM | SNB-75 > 100 µM | CCRF-CEM > 100 µM | OVCAR-4 > 100 µM | CAKI-1 > 100 µM | K562 > 100 µM | UACC-257 > 100 µM
